Tested on: D4539 (Escherichia coli MTP BioA) containing tobacco plants
Experiment: Visual herbicide damage score on transgenic tobacco D4539 (pBin TMV MTP EcBioA)
Type: in vivo
Conditions: 600 gai/ha
Text: In order to determine if the overexpressed gene detailed in Example 3 confers resistance to BIO3-BIO1 inhibiting compounds when expressed in plants, GM tobacco lines were produced and tested with BIO3-BIO1 inhibiting compounds. Transgenic tobacco plants expressing the Escherichia coli BioA gene with (SEQ ID NO:203) and without a mitochondrial signal peptide (SEQ ID NO: 202).
Populations of transgenic tobacco comprising 20-30 transgenic events per plant transformation constructs were generated as described in Example 1. These lines were clonally propagated and 1 clone per event was sprayed with 600 g ai/ha compound L or A+0.2% Genapol X080 with a spray volume of 200 L/Ha (“g ai/ha” refers to grams of active compound per hectare).
[…] A score of 0 indicates no visible damage or stunting whereas a score of 100 indicates a complete death of the plant. 20 transgenic events (i.e. individual transgenic plants) from each GM tobacco line were transplanted to soil 1 week prior to spraying with BIO3-BIO1 inhibiting compounds. WT tobacco was included as a control.

Measured: percentage of damage (herbicide damage score)

CCn1c(Cn2ccc(C(F)(F)F)n2)cc(=O)c(C(=O)O)c1-c1ccc(Cl)c(Cl)c1 [Compound L, 2-(3,4-dichlorophenyl)-1-ethyl-4-oxo-6-[[3-(trifluoromethyl)pyrazol-1-yl]methyl]pyridine-3-carboxylic acid]
25%: D4539 event 8418, 14 DAT
15%: D4539 event 8438, 7 DAT
60%: D4539 event 8418, 21 DAT
10%: D4539 event 8385, 7 DAT | D4539 event 8418, 7 DAT
85%: D4539 event 8424, 14 DAT | D4539 event 8438, 14 DAT
3%: D4539 event 8402, 7 DAT | D4539 event 8462, 21 DAT
95%: D4539 event 8438, 21 DAT
0%: D4539 event 8385, 14 DAT | D4539 event 8385, 21 DAT | D4539 event 8386, 14 DAT | D4539 event 8386, 21 DAT | D4539 event 8399, 14 DAT | D4539 event 8399, 21 DAT | D4539 event 8402, 14 DAT | D4539 event 8402, 21 DAT | D4539 event 8414, 14 DAT | D4539 event 8414, 21 DAT | D4539 event 8415, 14 DAT | D4539 event 8415, 21 DAT | D4539 event 8417, 14 DAT | D4539 event 8423, 14 DAT | D4539 event 8423, 21 DAT | D4539 event 8426, 14 DAT | D4539 event 8426, 21 DAT | D4539 event 8433, 14 DAT | D4539 event 8433, 21 DAT | D4539 event 8434, 14 DAT | D4539 event 8439, 14 DAT | D4539 event 8439, 21 DAT | D4539 event 8447, 14 DAT | D4539 event 8447, 21 DAT | D4539 event 8448, 14 DAT | D4539 event 8448, 21 DAT | D4539 event 8460, 14 DAT | D4539 event 8460, 21 DAT | D4539 event 8462, 14 DAT
7%: D4539 event 8386, 7 DAT | D4539 event 8415, 7 DAT
35%: D4539 event 8434, 21 DAT
20%: D4539 event 8417, 21 DAT
17%: D4539 event 8461, 7 DAT
90%: D4539 event 8424, 21 DAT | D4539 event 8461, 21 DAT
65%: D4539 event 8424, 7 DAT
5%: D4539 event 8433, 7 DAT
75%: D4539 event 8461, 14 DAT
2%: D4539 event 8399, 7 DAT | D4539 event 8414, 7 DAT | D4539 event 8417, 7 DAT | D4539 event 8423, 7 DAT | D4539 event 8426, 7 DAT | D4539 event 8434, 7 DAT | D4539 event 8439, 7 DAT | D4539 event 8447, 7 DAT | D4539 event 8448, 7 DAT | D4539 event 8460, 7 DAT | D4539 event 8462, 7 DAT
